Experimental data published in patent US9920039B2, “1,2,4-Oxadiazol compounds active against gram-positive pathogens” (UNIVERSITÀ DEGLI STUDI DI MILANO—BICOCCA, priority 2013, dated 2018).
Values after ≈ are worked out from the molar mass of the structure shown. Like-named read-outs stand apart in the source and are kept apart here.

Columns and labels:
[1] = tested on: 45 Linezolid-susceptible MRSA; experiment: MIC summary on strain panel (Table 5); assay type: cell-based, Staphylococcus aureus
Source text: In particular, eleven linezolid-resistant coagulase-negative staphylococci (CoNS) (ten S. epidermidis and one S. hominis) were investigated. The eleven linezolid-resistant strains were isolated in several hospital settings between 2010 and 2011 from positive blood cultures. For the […], recently isolated from patients with cystic fibrosis, showing different profiles of multi-resistance to different classes of antimicrobials, was used (Table 4 and 5).
(§1) The in vitro antibacterial activity of the new agents was studied by determining their minimum inhibitory concentrations (MICs) by means of the broth microdilution method according to the Clinical and Laboratory Standards Institute (CLSI) guidelines.[16] Briefly, serial 2-fold dilutions of each compound were made using the Cation adjusted Mueller-Hinton broth (CAMHB) in microtitre plates with 96 wells. Dimethyl sulfoxide (DMSO) was used as solvent for all the synthesized compounds. An equal volume of the bacterial inoculum (1×10^6 CFU/mL) was added to each well on the microtitre plate containing 0.05 mL of the serial antibiotic dilutions. The microtitre plate was then incubated at 37° C. for 18-24 h after which each well was analysed for the presence of bacterial growth. The MIC was defined as the lowest concentration of antimicrobial agent able to cause inhibition of bacterial growth as shown by the lack of turbidity of the culture medium. […] Final DMSO concentrations were also taken into account in all the biological assays.

[2] = tested on: Linezolid-resistant S. hominis Strain 11; experiment: MIC by broth microdilution (Table 5); assay type: cell-based, Staphylococcus hominis; settings: S. hominis Strain 11, linezolid-resistant
Source text: as §1

[3] = tested on: Linezolid-resistant S. epidermidis Strains 1-10; experiment: MIC by broth microdilution (Table 5); assay type: cell-based, Staphylococcus epidermidis
Source text: as §1

[4] = tested on: Staphylococcus aureus ATCC 29213; experiment: MIC by broth microdilution (CLSI); assay type: cell-based
Source text: (§2) Several well characterized for their antibiotic-susceptibility phenotype Staphylococcus aureus isolates were used for the determination of the in vitro antibacterial activity of the studied compounds. In particular, S. aureus ATCC 29213 reference standard strain and S. aureus M923 (collection strain) were used as MSSA strains. Among MRSA, S. aureus MU50 (ATCC 700699) reference standard strain and two collection strains (433 and F511) were used for susceptibility assays.
as §1
(§3) The antimicrobial activities, summarized in Table 2, were determined by the “gold standard” method of broth microdilution, as recommended by the Clinical Laboratory Standards Institute (CLSI) (See the Experimental Section). […] In detail, the bacterial strains were tested: Staphylococcus aureus ATCC 29213, a clinical strain of methicillin-susceptible S. aureus (M923), S. aureus MU50 (methicillin-resistant—MRSA), and two methicillin-resistant clinical strains, 433 and F511.
(§4) The antimicrobial activities, summarized in Table 3, were determined by the “gold standard” method of broth microdilution, as recommended by the Clinical Laboratory Standards Institute (CLSI) (See the Experimental Section). The minimum inhibitory concentration (MIC) values were expressed in μg/mL. […] In detail, the tested bacterial strains were: Staphylococcus aureus ATCC 29213, a clinical strain of methicillin-susceptible S. aureus (M923), S. aureus MU50 (methicillin-resistant—MRSA) strain, and two methicillin-resistant clinical strains, 433 and F511.

[5] = tested on: 11 Linezolid-resistant CoNS; experiment: MIC summary on strain panel (Table 5); assay type: cell-based, Staphylococcus epidermidis, Staphylococcus hominis
Source text: as §1

ATCC E. faecalis 29212 = experiment: MIC by broth microdilution (Table 5); assay type: cell-based, Enterococcus faecalis
Protocol: Dimethyl sulfoxide (DMSO) was used as solvent for all the synthesized compounds. An equal volume of the bacterial inoculum (1×10^6 CFU/mL) was added to each well on the microtitre plate containing 0.05 mL of the serial antibiotic dilutions. The microtitre plate was then incubated at 37° C. for 18-24 h after which each well was analysed for the presence of bacterial growth. The MIC was defined as the lowest concentration of antimicrobial agent able to cause inhibition of bacterial growth as shown by the lack of turbidity of the culture medium. […] Final DMSO concentrations were also taken into account in all the biological assays.

[6] = tested on: mitochondrial protein synthesis (OXPHOS complexes) in HepG2 cells; experiment: Oxidative phosphorylation (OXPHOS) assay
Source text: This assay (Nadaciva S. et al., 2010) is used to monitor the level of mitochondrial protein synthesis of some key proteins in the process of oxidative phosphorylation of eukaryotic cells, comparing it with the level of synthesis of mitochondrial proteins encoded by nuclear DNA. This study allows us to analyze the effects of A4bS on the proteins encoded by mitochondrial DNA (mtDNA).
The data represent the mean±SEM of three separate experiments performed in triplicate. Statistical significance is obtained by the Student's test compared to the […].

[7] = tested on: HepG2 (human hepatocellular carcinoma) cells; experiment: Cell viability, MTT assay; assay type: cell-based; settings: FIG. 4
Protocol: (§5) [17-19] HepG2 and HaCat cells were grown in Dulbecco's modified eagles medium (DMEM) whereas PK15 in DMEM/M199 (1:1). All media were supplemented with 10% heat inactivated foetal bovine serum (FBS), 2 mM L-glutamine, 100 units/mL penicillin and 100 μg/mL streptomycin. Cells were maintained at 37° C. in a 5% CO2 atmosphere. All reagents for cell culture were from Euroclone (Pero, Italy).
(§6) Cell viability was measured by the MTT assay.[20] Briefly, MTT [3-(4,5-Dimethylthiazol-2-yl)-2,5-diphenyltetrazolium bromide] stock solution (5 mg/mL) was added to each well to a final concentration of 1.2 mM, and cells were incubated for 1 hour and 30 minutes at 37° C. After removing MTT solution, the reaction was stopped by adding 90% ethanol. Resuspended cells were centrifuged 10 min at 800×g. The absorbance was measured with the multilabel Victor^3 spectrophotometer (Perkin Elmer, Turku, Finland) at wavelength of 570 nm. Data are means±S.E. of 3 separate experiments performed in triplicate.
(§7) Statistical significance was obtained with Student'st test in comparison with controls *=P≤0.05, **=P≤0.001. Data are means±S.E. of 3 separate experiments performed in triplicate.
(§8) Another control was DMSO used as solvent.

[8] = tested on: PK15 (porcine kidney epithelial) cells; experiment: Cell viability, MTT assay; assay type: cell-based; settings: 5-400 μg/mL, FIG. 2
Protocol: as §5, §6, §7, §8

[9] = tested on: HaCaT (human keratinocytes) cells; experiment: Cell viability, MTT assay; assay type: cell-based; settings: P<0.01, FIG. 3
Protocol: as §5, §6, §7, §8

[10] = tested on: methicillin-susceptible S. aureus (M923); experiment: MIC by broth microdilution (CLSI); assay type: cell-based, Staphylococcus aureus; settings: Staphylococcus aureus
Source text: as §2, §1, §3, §4

[11] = tested on: S. aureus MU50 (ATCC 700699), methicillin-resistant (MRSA); experiment: MIC by broth microdilution (CLSI); assay type: cell-based, Staphylococcus aureus
Source text: as §2, §1, §3, §4

[12] = tested on: MRSA clinical strain F511; experiment: MIC by broth microdilution (CLSI); assay type: cell-based, Staphylococcus aureus; settings: Staphylococcus aureus
Source text: as §2, §1, §3, §4

MRSA clinical strain 433 = experiment: MIC by broth microdilution (CLSI); assay type: cell-based, Staphylococcus aureus; settings: MRSA 433
Source text: as §2, §1, §3, §4

[13] = tested on: 6 ATCC (4MSSA, 2 MRSA)plus45 MRSA all LZD sensitive; experiment: MIC on strain panel (Table 4); assay type: cell-based, Staphylococcus aureus; settings: 6 ATCC plus 45 MRSA
Source text: as §1

[14] = tested on: 12 MRSE all LZD sensitive; experiment: MIC on strain panel (Table 4); assay type: cell-based, Staphylococcus epidermidis
Source text: as §1

[15] = Staphylococcus aureus, ATCC29213, ATCC 29213, racemic mixture, Table 2, read-out: MIC
[16] = Staphylococcus aureus, racemic mixture, Table 2, read-out: MIC

With `CC(=S)NC[C@H]1CN(c2ccc(-c3nc(C)no3)c(F)c2)C(=O)O1` [Compound A4bS] the MIC50 [1] was 0.5 µg/mL (≈ 1.43 µM), the MIC [2] was 4 µg/mL (≈ 11.4 µM) and the MIC ([3]; S. epidermidis Strain 1, linezolid-resistant) was 8 µg/mL (≈ 22.8 µM). The MIC ([3]; S. epidermidis Strain 2, linezolid-resistant) was 8 µg/mL (≈ 22.8 µM), the MIC ([3]; S. epidermidis Strain 3, linezolid-resistant) was 4 µg/mL (≈ 11.4 µM) and the MIC ([3]; S. epidermidis Strain 4, linezolid-resistant) was 4 µg/mL (≈ 11.4 µM). For the same molecule, the MIC ([3]; S. epidermidis Strain 5, linezolid-resistant) was 2 µg/mL (≈ 5.71 µM), the MIC ([3]; S. epidermidis Strain 6, linezolid-resistant) was 4 µg/mL (≈ 11.4 µM) and the MIC ([3]; S. epidermidis Strain 7, linezolid-resistant) was 8 µg/mL (≈ 22.8 µM). It also gave an MIC ([3]; S. epidermidis Strain 8, linezolid-resistant) of 2 µg/mL (≈ 5.71 µM), an MIC ([3]; S. epidermidis Strain 9, linezolid-resistant) of 1 µg/mL (≈ 2.85 µM) and an MIC ([3]; S. epidermidis Strain 10, linezolid-resistant) of 4 µg/mL (≈ 11.4 µM). For the same molecule, the MIC ([4]; ATCC S. aureus 29213, resolved enantiomers, Table 5, read-out: MIC) was 4 µg/mL (≈ 11.4 µM), the MIC50 ([5]; 11 Linezolid-resistant CoNS) was 4 µg/mL (≈ 11.4 µM) and the MIC90 ([5]; 11 Linezolid-resistant CoNS) was 8 µg/mL (≈ 22.8 µM). For the same molecule, the “effect on linezolid resistance (in words)” value ([5]; linezolid-resistant Staphylococcus spp. strains) was “completely reversed resistance to linezolid into susceptibility”, the MIC (ATCC E. faecalis 29212) was 2 µg/mL (≈ 5.71 µM) and the “effect on proteins synthesized by mtDNA (in words)” value [6] was “reduction of the synthesis of proteins of complex I and IV”.

`CC(=S)NCC1CN(c2ccc(-c3nc(C)no3)c(F)c2)C(=O)O1` (racemic) [Compound A4b, 3-(3′-fluoro-4′-(3″-methyl-1,2,4-oxadiazol-5-yl)-phenyl)-5-(N-thioacetylaminomethyl)-oxazolidin-2-one] was tested, and the “concentration from which a reduction in viability was shown” value [7] was ≥ 50 µg/mL, the reduction of viability [8] was “less than 10%” and the “concentration reaching statistically significant mortality compared to linezolid” value [9] was 400 µg/mL. The MIC [4, 15] was 1.6 µg/mL (≈ 4.57 µM), the MIC ([10]; MSSA M923, racemic mixture, Table 2, read-out: MIC) was 1.6 µg/mL (≈ 4.57 µM) and the MIC [11, 16] was ≤ 0.4 µg/mL. The MIC ([12]; racemic mixture, Table 2, read-out: MIC) was 1.6 µg/mL (≈ 4.57 µM) and the MIC (MRSA clinical strain 433; [16]) was 0.8 µg/mL (≈ 2.28 µM).

In the case of `CC(=O)NC[C@H]1CN(c2ccc(N3CCOCC3)c(F)c2)C(=O)O1` [Linezolid, reference compound], the MIC-range ([13]; tested range ≤0.06 - >128) is reported as 0.25 to 16 µg/mL, the MIC50 ([13]; Staphylococcus aureus, read-out: MIC50) is reported as 2 µg/mL and the MIC90 ([13]; Staphylococcus aureus, read-out: MIC90) is reported as 4 µg/mL. For the same molecule, the MIC ([4]; ATCC 29213, racemic form, Table 3) was ≤0.4 µg/mL, the MIC [4, 15] was ≤ 0.4 µg/mL and the MIC range [14] was 32 to 64 µg/mL. For the same molecule, the MIC50 ([14]; Staphylococcus epidermidis, read-out: MIC50) was 32 µg/mL (≈ 94.9 µM), the MIC90 ([14]; Staphylococcus epidermidis, read-out: MIC90) was 64 µg/mL (≈ 190 µM) and the MIC ([10]; MSSA, racemic mixture, Table 2) was 3.13 µg/mL (≈ 9.28 µM). For the same molecule, the MIC ([10]; MSSA M923, racemic form, Table 3, read-out: MIC) was 3.12 µg/mL (≈ 9.26 µM), the MIC [11, 16] was 0.8 µg/mL (≈ 2.37 µM) and the MIC ([11]; racemic form, Table 3) was 0.8 µg/mL (≈ 2.37 µM). For the same molecule, the MIC ([12]; MRSA, racemic mixture, Table 2) was 3.13 µg/mL (≈ 9.28 µM), the MIC ([12]; racemic form, Table 3, read-out: MIC) was 3.12 µg/mL (≈ 9.26 µM) and the MIC (MRSA clinical strain 433; racemic form, Table 3) was 1.6 µg/mL (≈ 4.74 µM). For the same molecule, the MIC (MRSA clinical strain 433; [16]) was 1.6 µg/mL (≈ 4.74 µM) and the “effect on proteins synthesized by mtDNA (in words)” value ([6]; HepG2, linezolid 100 μg/mL, A4bS 10-100 μg/mL, vs non-treated cells, FIG. 6) was “significant decrease”.
